Data published in PubChem BioAssay (NCI).
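Test compounds were applied to cells in 96-well plates for 48 hours at 5 doses. At the TGI there is no net growth.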

How the values were obtained:
Experiment in all cases: NCI tumour cell line growth inhibition, 48 h
OVCAR-3 ovarian = tested on: OVCAR-3 ovarian
CCRF-CEM leukemia = tested on: CCRF-CEM leukemia
SK-MEL-28 melanoma = tested on: SK-MEL-28 melanoma
SF-295 CNS = tested on: SF-295 CNS
A549 NSCLC = tested on: A549 NSCLC
P388 leukemia = tested on: P388 leukemia
SNB-78 CNS = tested on: SNB-78 CNS
DMS 114 small cell lung = tested on: DMS 114 small cell lung
DLD-1 colon = tested on: DLD-1 colon
M19-MEL melanoma = tested on: M19-MEL melanoma
DMS 273 small cell lung = tested on: DMS 273 small cell lung
SK-MEL-2 melanoma = tested on: SK-MEL-2 melanoma
KM12 colon = tested on: KM12 colon
OVCAR-5 ovarian = tested on: OVCAR-5 ovarian
P388/ADR leukemia = tested on: P388/ADR leukemia
MALME-3M melanoma = tested on: MALME-3M melanoma
XF 498 CNS = tested on: XF 498 CNS
NCI-H522 lung = tested on: NCI-H522 lung
IGROV1 ovarian = tested on: IGROV1 ovarian
COLO 205 colon = tested on: COLO 205 colon
KM20L2 colon = tested on: KM20L2 colon
HOP-92 NSCLC = tested on: HOP-92 NSCLC
UACC-62 melanoma = tested on: UACC-62 melanoma
SK-MEL-5 melanoma = tested on: SK-MEL-5 melanoma
OVCAR-8 ovarian = tested on: OVCAR-8 ovarian
EKVX NSCLC = tested on: EKVX NSCLC
SN12K1 renal = tested on: SN12K1 renal
HT29 colon = tested on: HT29 colon
A498 renal = tested on: A498 renal
RPMI-8226 leukemia = tested on: RPMI-8226 leukemia
NCI-H226 lung = tested on: NCI-H226 lung
SNB-19 CNS = tested on: SNB-19 CNS
SF-268 CNS = tested on: SF-268 CNS
MCF7 breast = tested on: MCF7 breast
RXF 393 renal = tested on: RXF 393 renal
UACC-257 melanoma = tested on: UACC-257 melanoma
HCT-116 colon = tested on: HCT-116 colon
SNB-75 CNS = tested on: SNB-75 CNS
HOP-62 NSCLC = tested on: HOP-62 NSCLC
SK-OV-3 ovarian = tested on: SK-OV-3 ovarian
OVCAR-4 ovarian = tested on: OVCAR-4 ovarian
HCT-15 colon = tested on: HCT-15 colon
K-562 leukemia = tested on: K-562 leukemia
SW-620 colon = tested on: SW-620 colon
NCI-H23 lung = tested on: NCI-H23 lung
MOLT-4 leukemia = tested on: MOLT-4 leukemia
HCC-2998 colon = tested on: HCC-2998 colon
NCI/ADR-RES ovarian = tested on: NCI/ADR-RES ovarian
HL-60(TB) leukemia = tested on: HL-60(TB) leukemia
UO-31 renal = tested on: UO-31 renal
U251 CNS = tested on: U251 CNS
SN12C renal = tested on: SN12C renal
SF-539 CNS = tested on: SF-539 CNS
HOP-18 NSCLC = tested on: HOP-18 NSCLC
CAKI-1 renal = tested on: CAKI-1 renal
LOX IMVI melanoma = tested on: LOX IMVI melanoma
NCI-H460 lung = tested on: NCI-H460 lung
786-0 renal = tested on: 786-0 renal
TK-10 renal = tested on: TK-10 renal
RXF-631 renal = tested on: RXF-631 renal
M14 melanoma = tested on: M14 melanoma
ACHN renal = tested on: ACHN renal
LXFL 529 NSCLC = tested on: LXFL 529 NSCLC

With `NC(Cc1cc(I)c(O)c(I)c1)C(=O)O` (centres undefined) the TGI (OVCAR-3 ovarian) was > 500 µM, the TGI (CCRF-CEM leukemia) was > 500 µM and the TGI (SK-MEL-28 melanoma) was > 500 µM. For the same compound, the TGI (SF-295 CNS) was > 500 µM, the TGI (A549 NSCLC) was > 500 µM and the TGI (P388 leukemia) was 160 µM. The TGI (SNB-78 CNS) was > 500 µM, the TGI (DMS 114 small cell lung) was > 293 µM and the TGI (DLD-1 colon) was > 500 µM. For the same compound, the TGI (M19-MEL melanoma) was > 393 µM, the TGI (DMS 273 small cell lung) was > 322 µM and the TGI (SK-MEL-2 melanoma) was > 500 µM. The TGI (KM12 colon) was > 500 µM, the TGI (OVCAR-5 ovarian) was > 500 µM and the TGI (P388/ADR leukemia) was > 364 µM. The TGI (MALME-3M melanoma) was > 500 µM, the TGI (XF 498 CNS) was > 500 µM and the TGI (NCI-H522 lung) was 130 µM. For the same compound, the TGI (IGROV1 ovarian) was > 500 µM, the TGI (COLO 205 colon) was > 500 µM and the TGI (KM20L2 colon) was > 500 µM. The TGI (HOP-92 NSCLC) was > 107 µM, the TGI (UACC-62 melanoma) was > 357 µM and the TGI (SK-MEL-5 melanoma) was > 500 µM. For the same compound, the TGI (OVCAR-8 ovarian) was > 500 µM, the TGI (EKVX NSCLC) was > 316 µM and the TGI (SN12K1 renal) was 246 µM. The TGI (HT29 colon) was > 393 µM, the TGI (A498 renal) was > 500 µM and the TGI (RPMI-8226 leukemia) was > 500 µM. For the same compound, the TGI (NCI-H226 lung) was > 500 µM, the TGI (SNB-19 CNS) was > 500 µM and the TGI (SF-268 CNS) was > 500 µM. For the same compound, the TGI (MCF7 breast) was > 500 µM, the TGI (RXF 393 renal) was 449 µM and the TGI (UACC-257 melanoma) was > 354 µM. The TGI (HCT-116 colon) was > 500 µM, the TGI (SNB-75 CNS) was > 330 µM and the TGI (HOP-62 NSCLC) was > 500 µM. For the same compound, the TGI (SK-OV-3 ovarian) was > 500 µM, the TGI (OVCAR-4 ovarian) was 332 µM and the TGI (HCT-15 colon) was > 362 µM. The TGI (K-562 leukemia) was > 500 µM, the TGI (SW-620 colon) was > 500 µM and the TGI (NCI-H23 lung) was > 356 µM. The TGI (MOLT-4 leukemia) was > 500 µM, the TGI (HCC-2998 colon) was > 500 µM and the TGI (NCI/ADR-RES ovarian) was > 316 µM. For the same compound, the TGI (HL-60(TB) leukemia) was > 500 µM, the TGI (UO-31 renal) was > 500 µM and the TGI (U251 CNS) was > 500 µM. The TGI (SN12C renal) was > 500 µM, the TGI (SF-539 CNS) was > 500 µM and the TGI (HOP-18 NSCLC) was > 500 µM. For the same compound, the TGI (CAKI-1 renal) was 249 µM, the TGI (LOX IMVI melanoma) was > 361 µM and the TGI (NCI-H460 lung) was > 349 µM.

With `O=C(N/N=C(/c1nc2ccc(Cl)cc2[nH]c1=O)C(O)c1ccc(Cl)cc1Cl)c1ccncc1` (centres undefined) the TGI (OVCAR-3 ovarian) was > 100 µM, the TGI (786-0 renal) was > 100 µM and the TGI (CCRF-CEM leukemia) was > 100 µM. The TGI (SK-MEL-28 melanoma) was > 100 µM, the TGI (SF-295 CNS) was > 100 µM and the TGI (A549 NSCLC) was > 100 µM. For the same compound, the TGI (SNB-78 CNS) was > 100 µM, the TGI (DMS 114 small cell lung) was > 100 µM and the TGI (DLD-1 colon) was > 100 µM. The TGI (TK-10 renal) was > 100 µM, the TGI (M19-MEL melanoma) was > 100 µM and the TGI (DMS 273 small cell lung) was > 100 µM. The TGI (SK-MEL-2 melanoma) was > 100 µM, the TGI (RXF-631 renal) was > 100 µM and the TGI (KM12 colon) was > 100 µM. For the same compound, the TGI (OVCAR-5 ovarian) was > 100 µM, the TGI (MALME-3M melanoma) was > 100 µM and the TGI (IGROV1 ovarian) was > 100 µM. The TGI (COLO 205 colon) was > 100 µM, the TGI (KM20L2 colon) was > 100 µM and the TGI (HOP-92 NSCLC) was > 100 µM. The TGI (UACC-62 melanoma) was > 100 µM, the TGI (SK-MEL-5 melanoma) was > 100 µM and the TGI (OVCAR-8 ovarian) was > 100 µM. The TGI (EKVX NSCLC) was > 100 µM, the TGI (HT29 colon) was > 100 µM and the TGI (A498 renal) was > 100 µM. The TGI (RPMI-8226 leukemia) was > 100 µM, the TGI (NCI-H226 lung) was > 100 µM and the TGI (SNB-19 CNS) was > 100 µM. For the same compound, the TGI (SF-268 CNS) was > 100 µM, the TGI (M14 melanoma) was > 100 µM and the TGI (RXF 393 renal) was > 100 µM. For the same compound, the TGI (UACC-257 melanoma) was > 100 µM, the TGI (HCT-116 colon) was > 100 µM and the TGI (SNB-75 CNS) was > 100 µM. The TGI (HOP-62 NSCLC) was > 100 µM, the TGI (SK-OV-3 ovarian) was > 100 µM and the TGI (HCT-15 colon) was > 100 µM. For the same compound, the TGI (K-562 leukemia) was > 100 µM, the TGI (SW-620 colon) was > 100 µM and the TGI (NCI-H23 lung) was > 100 µM. For the same compound, the TGI (MOLT-4 leukemia) was > 100 µM, the TGI (HCC-2998 colon) was > 100 µM and the TGI (ACHN renal) was > 100 µM. For the same compound, the TGI (HL-60(TB) leukemia) was > 100 µM, the TGI (LXFL 529 NSCLC) was > 100 µM and the TGI (UO-31 renal) was > 100 µM. The TGI (U251 CNS) was > 100 µM, the TGI (SF-539 CNS) was > 100 µM and the TGI (CAKI-1 renal) was > 100 µM. The TGI (LOX IMVI melanoma) was > 100 µM and the TGI (NCI-H460 lung) was > 100 µM.

For `Cc1cnc[nH]c1=O`, the TGI (OVCAR-3 ovarian) was > 100 µM, the TGI (786-0 renal) was > 100 µM and the TGI (CCRF-CEM leukemia) was > 100 µM. The TGI (SK-MEL-28 melanoma) was > 100 µM, the TGI (SF-295 CNS) was > 100 µM and the TGI (A549 NSCLC) was > 100 µM. For the same compound, the TGI (SNB-78 CNS) was > 100 µM, the TGI (DMS 114 small cell lung) was > 100 µM and the TGI (DLD-1 colon) was > 100 µM. For the same compound, the TGI (TK-10 renal) was > 100 µM, the TGI (M19-MEL melanoma) was > 100 µM and the TGI (DMS 273 small cell lung) was > 100 µM. For the same compound, the TGI (SK-MEL-2 melanoma) was > 100 µM, the TGI (RXF-631 renal) was > 100 µM and the TGI (KM12 colon) was > 100 µM. For the same compound, the TGI (OVCAR-5 ovarian) was > 100 µM, the TGI (MALME-3M melanoma) was > 100 µM and the TGI (NCI-H522 lung) was > 100 µM. For the same compound, the TGI (IGROV1 ovarian) was > 100 µM, the TGI (COLO 205 colon) was > 100 µM and the TGI (KM20L2 colon) was > 100 µM. For the same compound, the TGI (UACC-62 melanoma) was > 100 µM, the TGI (SK-MEL-5 melanoma) was > 100 µM and the TGI (OVCAR-8 ovarian) was > 100 µM. The TGI (EKVX NSCLC) was > 100 µM, the TGI (HT29 colon) was > 100 µM and the TGI (A498 renal) was > 100 µM. The TGI (RPMI-8226 leukemia) was > 100 µM, the TGI (NCI-H226 lung) was > 100 µM and the TGI (SNB-19 CNS) was > 100 µM. The TGI (SF-268 CNS) was > 100 µM, the TGI (M14 melanoma) was > 100 µM and the TGI (UACC-257 melanoma) was > 100 µM. For the same compound, the TGI (HCT-116 colon) was > 100 µM, the TGI (SNB-75 CNS) was > 100 µM and the TGI (HOP-62 NSCLC) was > 100 µM. The TGI (SK-OV-3 ovarian) was > 100 µM, the TGI (OVCAR-4 ovarian) was > 100 µM and the TGI (HCT-15 colon) was > 100 µM. The TGI (K-562 leukemia) was > 100 µM, the TGI (SW-620 colon) was > 100 µM and the TGI (NCI-H23 lung) was > 100 µM. For the same compound, the TGI (MOLT-4 leukemia) was > 100 µM, the TGI (HCC-2998 colon) was > 100 µM and the TGI (ACHN renal) was > 100 µM. For the same compound, the TGI (HL-60(TB) leukemia) was > 100 µM, the TGI (LXFL 529 NSCLC) was > 100 µM and the TGI (UO-31 renal) was > 100 µM. For the same compound, the TGI (U251 CNS) was > 100 µM, the TGI (SN12C renal) was > 100 µM and the TGI (HOP-18 NSCLC) was > 100 µM. The TGI (CAKI-1 renal) was > 100 µM, the TGI (LOX IMVI melanoma) was > 100 µM and the TGI (NCI-H460 lung) was > 100 µM.
